Results taken from PubChem BioAssay (NCI).
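Dose response: 5 concentrations. Exposure: 48 h. Format: 96-well plates. Endpoint: linear interpolation; highest concentration if not reached. TGI: total growth inhibition.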

Columns and labels:
Experiment in all cases: NCI anticancer screen, dose series, 48 h
PC-3 prostate = test system: PC-3 prostate
SW-620 colon = test system: SW-620 colon
CAKI-1 renal = test system: CAKI-1 renal
U251 CNS = test system: U251 CNS
SK-MEL-28 melanoma = test system: SK-MEL-28 melanoma
NCI-H460 lung = test system: NCI-H460 lung
KM12 colon = test system: KM12 colon
MOLT-4 leukemia = test system: MOLT-4 leukemia
MDA-MB-435 = test system: MDA-MB-435
CCRF-CEM leukemia = test system: CCRF-CEM leukemia
T-47D breast = test system: T-47D breast
HS 578T breast = test system: HS 578T breast
M14 melanoma = test system: M14 melanoma

| SMILES | TGI (PC-3 prostate) [µM] | TGI (SW-620 colon) [µM] | TGI (CAKI-1 renal) [µM] | TGI (U251 CNS) [µM] | TGI (SK-MEL-28 melanoma) [µM] | TGI (NCI-H460 lung) [µM] | TGI (KM12 colon) [µM] | TGI (MOLT-4 leukemia) [µM] | TGI (MDA-MB-435) [µM] | TGI (CCRF-CEM leukemia) [µM] | TGI (T-47D breast) [µM] | TGI (HS 578T breast) [µM] | TGI (M14 melanoma) [µM] |
| --- | --- | --- | --- | --- | --- | --- | --- | --- | --- | --- | --- | --- | --- |
| OC1(c2ccc(-c3ccccc3)cc2)c2ccccc2C2=NCCN21 (stereo not given) | 62.9 | > 100 | > 100 | > 100 | 80.6 | > 100 | 54.4 | > 100 | > 100 | > 100 | > 100 | 75.4 | – |
| CCCC(CCC(N)=O)(CCC(N)=O)[N+](=O)[O-] | > 100 | > 100 | > 100 | > 100 | – | > 100 | > 100 | > 100 | > 100 | > 100 | > 100 | > 100 | > 100 |
| CS(=O)(=O)OCCN(CCOS(C)(=O)=O)c1ccc(C=Nc2cccc(Cl)c2)cc1 | > 100 | > 100 | 1.56 | 20.7 | > 30.4 | > 33.4 | > 100 | 1.31 | 30.3 | > 100 | > 100 | 98.9 | 55.5 |
| C/C(=N\N=C(\N)SB(F)F)c1ccc2ccccc2c1 | > 100 | > 100 | > 100 | > 100 | > 100 | > 100 | > 100 | – | > 100 | 56.7 | > 100 | > 100 | > 100 |
| Cn1c2ccccc2c2c3c(c4c5ccccc5n(C)c4c21)C(=O)NC3=O | > 77.5 | > 100 | > 100 | > 51.5 | > 100 | 70.1 | > 100 | > 100 | > 100 | > 100 | > 100 | > 72.6 | > 100 |
| O=C(O)Cc1ccc(Nc2nc3cc(C(F)(F)F)ccc3nc2C(=O)O)cc1 | > 100 | > 100 | > 100 | > 100 | > 100 | > 100 | > 100 | > 100 | > 100 | – | > 100 | > 100 | > 100 |
| COc1ccc2nc(-c3ccccc3)cc(OCC(=O)O)c2c1 | > 100 | > 100 | > 100 | > 100 | > 100 | > 100 | > 100 | > 100 | > 100 | > 100 | > 100 | > 100 | > 100 |
| CN1C/C(=C\c2cccs2)C(O)/C(=C/c2cccs2)C1 (stereo not given) | > 100 | > 100 | > 100 | > 100 | > 100 | > 100 | > 100 | 69.6 | > 100 | 52.7 | 74.2 | > 100 | > 100 |
| O=C(OC1C2OC(=O)c3cc(O)c(O)c(O)c3Oc3cc4c(c(O)c3O)-c3c(cc(O)c(O)c3O)C(=O)OCC3OC(O)C(OC(=O)c5cc(O)c(O)c(O)c5Oc5cc6c(c(O)c5O)-c5c(cc(O)c(O)c5O)C(=O)OC1C(COC6=O)OC2O)C(OC(=O)c1cc(O)c(O)c(O)c1)C3OC4=O)c1cc(O)c(O)c(O)c1 (stereo not given) | 87.7 | 40.5 | > 100 | – | > 100 | 14.3 | 16.2 | 12.2 | 42.6 | > 100 | > 100 | 63.8 | > 100 |
| CCN1CCC(O)(c2ccc(Oc3ccc(F)cc3)cc2)C(C(=O)c2ccc(Oc3ccc(F)cc3)cc2)C1 (stereo not given) | 26.4 | 30.3 | 25.7 | 30.1 | 30.5 | – | 18.3 | 41.3 | 30.8 | 28.1 | 30.9 | 38.4 | 30.9 |
| CSc1ccc(-c2cc(-c3nc4ccccc4[nH]3)no2)cc1 | > 100 | > 100 | 70 | – | > 100 | 45.7 | 68.5 | 37.2 | 44.7 | > 100 | 37.3 | > 100 | 56.2 |
| CCOC(=O)C1=C(O)C2C3CC4C2C(O)=C(C(=O)OCC)C2C1C3C42 (stereo not given) | > 100 | > 100 | > 100 | > 100 | > 100 | > 100 | > 100 | > 100 | > 100 | > 100 | > 100 | > 100 | > 100 |
| COc1c(/C=C/C(C)(C)O)cc(C2CC(=O)c3c(O)cc(O)cc3O2)cc1CC=C(C)C (stereo not given) | 16.3 | > 50 | > 50 | 14.4 | 42.5 | 16.5 | 20.7 | 35 | 15.3 | > 50 | 33.2 | 24.9 | 16 |
| COC(=O)c1ccc(/C=C2\Oc3ccccc3C2=O)cc1 | > 100 | > 100 | > 100 | > 100 | > 100 | > 100 | > 100 | > 100 | > 100 | > 100 | > 100 | > 100 | > 100 |
| O=C(/C=C/c1ccc(-c2ccccc2)cc1)NCc1ccc(C(=O)NCc2ccccc2)cc1 | > 100 | > 100 | > 100 | > 100 | > 100 | > 100 | > 100 | – | > 100 | > 100 | > 100 | > 100 | > 100 |
| O=C(O)C(O)C(O)C(=O)O (stereo not given) | > 100 | > 100 | > 100 | > 100 | > 100 | > 100 | > 100 | > 100 | > 100 | > 100 | > 100 | > 100 | > 100 |
| O=C(O)CCS/C(=C\C(SCCC(=O)O)c1ccc(Cl)cc1)c1ccc(Cl)cc1 (stereo not given) | > 100 | > 100 | > 100 | > 100 | > 100 | > 100 | 65.4 | > 100 | > 100 | > 100 | > 100 | > 100 | > 100 |
| CCOC(=O)c1nnsc1N/N=C\c1ccc([N+](=O)[O-])cc1 | > 100 | > 100 | – | > 100 | > 100 | > 100 | > 100 | > 100 | > 100 | > 100 | > 100 | > 100 | > 100 |
